Test results taken from patent US20260183350A1, “ANTIBIOTIC-RESISTANT BACTERIA” (priority 2022, published 2026).

What was measured:
[1] = system: vancomycin-resistant E. faecium; assay: VRE nutrient utilization protocol: carbon sources; format: cell-based, Enterococcus faecium; conditions: aerobic; VRE minimal medium
Method: (§1) VRE minimal media consists of potassium phosphate monobasic (4 g/L), potassium phosphate dibasic (14 g/L), sodium citrate (1 g/L), magnesium sulphate (0.2 g/L), ammonium sulphate (2 g/L), adenosine (0.04 g/L), thymine (0.04 g/L), Kao and Michayluk vitamin solution [Sigma, K3129, 50× Stock](5×), glucose (1 g/L) and amino acid solution [Sigma, R7131, RPMI-1640, 50×](25×). If the study was performed under anaerobic conditions, fumarate (5.2 g/L) was added to increase growth of VRE strains. Carbon-free minimal media was prepared by leaving out glucose while nitrogen-free minimal media was prepared without the amino acid solution. Media was filter sterilized with a 0.22 micron filter and used immediately aerobically or degassed overnight if used anaerobically.
(§2) VRE strains were grown on R2A overnight before the cells were suspended in 0.9% saline to an OD of 0.38 (λ=595 nm). A 10% dilution of the cell suspension was prepared using VRE minimal media to achieve a final well OD of […] (λ=595 nm) greater than the sterile media OD. Both carbon and nitrogen source utilization were evaluated by adding the inoculated media and a filter-sterilised nutrient source solution into a well in a 1:1 ration to a final volume of 100 μL in aerobic tests and 200 μL in anaerobic tests. Carbon sources were tested individually and compared to a carbon-free control. To test nitrogen source utilization, a nitrogen source solution was prepared containing L-alanine (2 g/L), L-arginine (2.5 g/L, L-asparagine (0.71 g/L), L-aspartate (0.25 g/L), L-cysteine (0.625 g/L), L-glutamate (0.25 g/L), L-Glycine (0.125 g/L), L-histidine (0.1875 g/L), L-isoleucine (0.625 g/L), L-leucine (0.625 g/L), L-lysine HCl (0.5 g/L), L-methionine (0.1875 g/L), L-phenylalanine (0.1875 g/L), L-proline (0.25 g/L), L-serine (0.375 g/L), L-threonine (0.25 g/L), L-tryptophan (0.0625 g/L), L-tyrosine (0.29 g/L), L-valine (0.25 g/L), N-acetylglucosamine (2 g/L), and uracil (2.5 g/L). To test the strains' ability to utilize individual nitrogen sources, separate solutions were prepared eliminating one nitrogen source each. The change in growth compared to the complete nitrogen source solution control was used to determine nitrogen utilization. All carbon and nitrogen sources were tested in a technical triplicate for each biological replicate. Aerobic plates were incubated with a plate seal while anaerobic plates were not. The aerobic plate reader was set to read the plate (λ=595 nm, 37° C., 22 flashes per well, orbital shaking of 100 rpm for 15 s prior to each read) every 15 minutes for 24 hours. The anaerobic plate reader read the plate (λ=595 nm, 37° C., stationary) every 15 minutes for 24 hours.

[2] = system: NDM-1 Klebsiella pneumoniae; assay: Carbon utilisation assay; format: cell-based; conditions: anaerobic; M9 minimal medium, 0.5% (w/v) carbon source
[3] = system: NDM-1 Enterobacter cloacae; assay: Carbon utilisation assay; format: cell-based; conditions: anaerobic; M9 minimal medium, 0.5% (w/v) carbon source
[4] = system: NDM-1 Escherichia coli; assay: Carbon utilisation assay; format: cell-based; conditions: anaerobic; M9 minimal medium, 0.5% (w/v) carbon source
[5] = system: NDM-1 Klebsiella pneumoniae; assay: Nitrogen utilisation assay; format: cell-based; conditions: M9 minimal medium with glucose, 0.1% (w/v) nitrogen source
Method: (§3) New Delhi Metallo-β-lactamase 1 (NDM-1) Escherichia coli, NDM-1 Klebsiella pneumoniae, and NDM-1 Enterobacter cloacae were isolated from patients with intestinal CRE colonisation from the Imperial College Healthcare NHS Trust via rectal swab (REC ref. 19/LO/0112). The species were assigned by matrix assisted laser desorption ionization-time of flight (MALDI-TOF) mass spectrometry and later confirmed with 16S rRNA gene sequencing. CRE status was determined using X-pert Carba-R PCR detection (Cepheid, Sunnyvale, CA, USA), (Otter, J. A. et al. Detecting carbapenemase-producing Enterobacterales (CPE): an evaluation of an enhanced CPE infection control and screening programme in acute care. J Antimicrob Chemother 75, 2670-2676 (2020)).
(§4) Growth of CRE isolates on sole carbon or nitrogen sources was tested by inoculating each CRE isolate into a minimal medium supplemented with the nutrient of interest. First, CRE isolates were passaged from frozen glycerol stocks on Reasoner's 2A agar (R2A) plates. Cells were then suspended in M9 minimal media to a turbidity of 42% using a Turbidimeter (Biolog Inc.), then diluted a further 1 in 6 to inoculate the carbon or nitrogen utilisation assays. M9 minimal media contained the following (at final concentrations): 22 mM KH2PO4, 42 mM Na2HPO4, 9 mM NaCl, 0.49 mM MgSO4·7H2O, 0.09 mM CaCl2), 0.011 mM FeSO4·7H2O. For the carbon assays the M9 minimal medium was also supplemented with 0.1% (w/v) NH4Cl (as the nitrogen source) and the carbon sources were individually tested at 0.5% (w/v) concentration. For the nitrogen assays the M9 minimal medium was also supplemented with 0.5% (w/v) glucose (as the carbon source) and the nitrogen sources were individually tested at 0.1% (w/v) concentration. Cultures were incubated anaerobically and aerobically in a plate reader and OD600 readings were collected every 15 minutes for 24 hours.
(§5) Growth curves were analysed in Python (v3.6.5) using the AMiGA software (Midani, F. S., Collins, J. & Britton, R. A. AMiGA: Software for Automated Analysis of Microbial Growth Assays. mSystems 6, e0050821 (2021)). Growth of each isolate was measured with 6 wells from 2-3 independent experiments. Growth curves were normalised to the no substrate control using the subtraction method. AMiGA performed Gaussian Process regression to test differential growth between the substrate and the no substrate control. The functional difference in the OD (and its credible interval) was also computed between the substrate and the no substrate control.

[6] = system: NDM-1 Enterobacter cloacae; assay: Nitrogen utilisation assay; format: cell-based; conditions: anaerobic; M9 minimal medium with glucose, 0.1% (w/v) nitrogen source
Method: as §3, §4, §5

[7] = system: NDM-1 Escherichia coli; assay: Nitrogen utilisation assay; format: cell-based; conditions: anaerobic; M9 minimal medium with glucose, 0.1% (w/v) nitrogen source
Method: as §3, §4, §5

[8] = system: vancomycin-resistant E. faecalis; assay: VRE nutrient utilization protocol: carbon sources; format: cell-based, Enterococcus faecalis; conditions: aerobic; VRE minimal medium
Method: as §1, §2

[9] = system: NDM-1 Klebsiella pneumoniae; assay: Individual metabolite inhibition assay; format: cell-based; conditions: LB pH 6.5, 16 hours anaerobic
Method: as §3
(§6) Each metabolite was tested individually in an inhibition assay against each CRE isolate. Each metabolite was tested at three concentrations: the low, average, and high concentrations that were measured in healthy faeces (from Table 1). LB was supplemented with each metabolite (at the three different concentrations) and compared to a no metabolite control. […] Overnight cultures of each CRE isolate were inoculated at 10^3 CFU/ml. Cultures were incubated anaerobically for 16 hours at 37° C. Growth was measured at OD600 after 16 hours of incubation. Growth of the CRE isolate in the presence of each metabolite was compared to the no metabolite control using a one-way ANOVA followed by Dunn's multiple comparison test.

[10] = system: NDM-1 Enterobacter cloacae; assay: Individual metabolite inhibition assay; format: cell-based; conditions: LB pH 6.5, 16 hours anaerobic
Method: as §3, §6

[11] = system: NDM-1 Escherichia coli; assay: Individual metabolite inhibition assay; format: cell-based; conditions: LB pH 6.5, 16 hours anaerobic
Method: as §3, §6

[12] = at average and high concentrations (Table 1)
[13] = at low, average, and high concentrations (Table 1)

CC(=O)N[C@H]1C(O)O[C@H](CO)[C@@H](O)[C@@H]1O (stereo partly drawn) [N-acetylglucosamine]
Use as sole carbon source to support E. faecium growth [1]: could use
Use as sole carbon source to support K. pneumoniae growth [2]: could use
Use as sole carbon source to support E. cloacae growth [3]: could use
Use as sole carbon source to support E. coli growth [4]: could use
Use as sole nitrogen source to support K. pneumoniae growth ([5]; aerobic): not able to use
Use as sole nitrogen source to support K. pneumoniae growth ([5]; anaerobic): could use
Use as sole nitrogen source to support E. cloacae growth [6]: could use
Use as sole nitrogen source to support E. coli growth [7]: could use
Use as sole carbon source to support E. faecalis growth [8]: could use

CC(=O)O [acetate]
K. pneumoniae growth (OD600) with individual metabolite [9, 12]: inhibited
E. cloacae growth (OD600) with individual metabolite [10, 12]: inhibited
E. coli growth (OD600) with individual metabolite [11, 13]: inhibited

CCCC(=O)O [butyrate]
K. pneumoniae growth (OD600) with individual metabolite [9, 13]: inhibited
E. cloacae growth (OD600) with individual metabolite [10, 13]: inhibited
E. coli growth (OD600) with individual metabolite ([11]; at high concentrations (Table 1)): inhibited

CCO [ethanol]
E. cloacae growth (OD600) with individual metabolite ([10]; at the high concentration (Table 1)): inhibited
E. coli growth (OD600) with individual metabolite [11, 12]: inhibited

CC(C)C(=O)O [isobutyrate]
K. pneumoniae growth (OD600) with individual metabolite [9, 12]: inhibited
E. cloacae growth (OD600) with individual metabolite [10, 12]: inhibited

CCC(=O)O [propionate]
K. pneumoniae growth (OD600) with individual metabolite [9, 12]: inhibited
E. cloacae growth (OD600) with individual metabolite [10, 12]: inhibited
E. coli growth (OD600) with individual metabolite [11, 12]: inhibited

OC[C@H]1O[C@H](O[C@H]2O[C@H](CO)[C@@H](O)[C@H](O)[C@H]2O)[C@H](O)[C@@H](O)[C@@H]1O [trehalose, D-trehalose]
Use as sole carbon source to support E. faecium growth [1]: could use
Use as sole carbon source to support K. pneumoniae growth [2]: could use
Use as sole carbon source to support E. cloacae growth [3]: could use
Use as sole carbon source to support E. coli growth [4]: could use
Use as sole carbon source to support E. faecalis growth [8]: could use

CCCCC(=O)O [valerate]
K. pneumoniae growth (OD600) with individual metabolite [9, 12]: inhibited
E. cloacae growth (OD600) with individual metabolite [10, 13]: inhibited
E. coli growth (OD600) with individual metabolite [11, 12]: inhibited
